# “And” between values parts separate entries of the source, which are not always exact repeats. Equal values may be shown once. Read-outs that look alike come from different tables or passages of the source.
# Legend:
# [1] = system: Na+-sensitive transport system (system A) of the Ehrlich cell; test: Na+-sensitive uptake of amino acids; format: cell-based, mice
# [2] = system: Na+-insensitive uptake, Ehrlich cell; test: Uptake of amino acids by Ehrlich cells from Na+-free medium; format: cell-based, mice; details: for uptake (Table II): amino acid 1 mM, [Na+] 0; for inhibitory action on the uptake of methionine: choline has replaced Na+ (Table I); for Uptake of methionine in presence of inhibitor (Table I): labeled methionine 1 mM; for Uptake of methionine in presence of inhibitor (Table I) / Uptake of AIB in presence of inhibitor (Table I) / Uptake of labeled amino acid without inhibitor (Table I): no Na+; for Km: read-out: Km for the other amino acid (Table V), choline medium, 37 C, pH 7.4, 1 min, only approximate; for Km / Ratio of uptake Methionine/other amino acid (Table VI): absence of Na+; for Rate of methionine uptake (Table IV): 1 mM, Na+-free Krebs-Ringer phosphate medium; for Uptake of AIB in presence of inhibitor (Table I): labeled AIB 1 mM; for Uptake of labeled amino acid without inhibitor (Table I): labeled amino acid 1 mM, inhibitor 0
# [3] = system: Ehrlich cell; details: first minute, high amino acid levels; cited from earlier work
# [4] = system: Ehrlich cell; format: cell-based, mice; details: above 16 mM methionine, modified KRB medium with Na+, 1 min, 37 C, pH 7.4
# [5] = [Na+] 107 mEq/liter, 1 min, 37 C, pH 7.4
# [6] = methionine 0.25 mM + AIB 1.0 mM, 1 min, 37 C, pH 7.4
# [7] = methionine 0.5 mM + AIB 2.0 mM, 1 min, 37 C, pH 7.4
# [8] = methionine 1.0 mM + AIB 4.0 mM, 1 min, 37 C, pH 7.4
# [9] = read-out: Km of Na+-sensitive uptake, [Na+] 107 mEq/liter, 1 min, 37 C, pH 7.4
# [10] = choline chloride substituting for NaCl, Exp. 1
# [11] = choline chloride substituting for NaCl, Exp. 2
# [12] = sucrose substituting for NaCl, Exp. 1
# [13] = sucrose substituting for NaCl, Exp. 2
compound,measurement,setting,value
"CC(C)(N)C(=O)O [AIB, a-aminoisobutyric acid, reference compound]",Vmax of Na+-sensitive uptake,[1]; [5],5 mmoles/kg cell water min
same,"Vmax, velocities extrapolated to infinite [Na+]",[1],7.1 mM/kg cell water min
same,Sodium-sensitive uptake rate of the test amino acid in mixture (Table III),[1]; [6],0.51 mmoles/kg cell water min
same,Sodium-sensitive uptake rate of the test amino acid in mixture (Table III),[1]; [7],0.64 mmoles/kg cell water min
same,Sodium-sensitive uptake rate of the test amino acid in mixture (Table III),[1]; [8],0.77 mmoles/kg cell water min
same,Km,[1]; [9],2000 µM
same,uptake (Table II),[2]; [10],0.16 mmoles/kg cell water min
same,uptake (Table II),[2]; [11],0.21 mmoles/kg cell water min
same,uptake (Table II),[2]; [12],0.21 mmoles/kg cell water min
same,uptake (Table II),[2]; [13],0.29 mmoles/kg cell water min
same,inhibitory action on the uptake of methionine,[2],no significant inhibitory action
same,Uptake of methionine in presence of inhibitor (Table I),[2]; inhibitor 4 mM,2.63 mmoles/kg cell water-min
same,Uptake of methionine in presence of inhibitor (Table I),[2]; inhibitor 8 mM,2.62 mmoles/kg cell water-min
same,"rate of permeation at high levels (""nonsaturable"" migration)",[3],0.1 min-'
"CNC(C)(C)C(=O)O [MeAIB, α-(methylamino)-isobutyric acid, reference compound]",Km,[1]; [9],~300 µM
same,inhibitory action on the uptake of methionine,[2],no significant action
same,Uptake of methionine in presence of inhibitor (Table I),[2]; inhibitor 16 mM,1.77 mmoles/kg cell water-min
C[C@H](N)C(=O)O [alanine],Vmax of Na+-sensitive uptake,[1]; difference method of Fig. 5,6.4 mmoles per kg cell water min
NCC(=O)O [glycine],Vmax of Na+-sensitive uptake,[1]; difference method of Fig. 5,7.4 mmoles per kg cell water min
CC(C)C[C@H](N)C(=O)O [leucine],Km,[2],150 µM
"CSCC[C@H](N)C(=O)O [methionine, L-methionine]",linear slope of increase of uptake rate with methionine concentration,[4],0.09 min- l
same,inhibition of the saturable uptake of AIB,"[1]; Na+ at 107 mEq/liter, Fig. 10",so nearly complete
same,Vmax of Na+-sensitive uptake,[1]; [5],4 mmoles/kg cell water min and 3.7 mmoles/kg cell water min
same,"Vmax, velocities extrapolated to infinite [Na+]",[1],5.0 mM/kg cell water min
same,inhibition of the uptake of MeAIB,[1]; in the presence of Na+,inhibits almost completely
same,Ratio of uptake rates methionine/AIB (Table III),[1]; methionine 0.25 mM + AIB 1.0 mM,1.1
same,Sodium-sensitive uptake rate of the test amino acid in mixture (Table III),[1]; [6],0.58 mmoles/kg cell water min
same,Ratio of uptake rates methionine/AIB (Table III),[1]; methionine 0.5 mM + AIB 2.0 mM,1.5
same,Sodium-sensitive uptake rate of the test amino acid in mixture (Table III),[1]; [7],0.99 mmoles/kg cell water min
same,Ratio of uptake rates methionine/AIB (Table III),[1]; methionine 1.0 mM + AIB 4.0 mM,1.4
same,Sodium-sensitive uptake rate of the test amino acid in mixture (Table III),[1]; [8],1.04 mmoles/kg cell water min
same,Km,[1]; [9],300 µM
same,Km,"[1]; read-out: Km, velocities extrapolated to infinite [Na+], data of Fig. 12 left",140 µM
same,Rate of methionine uptake (Table IV),"[2]; pH 5.6, Exp. 1",3.03 mmoles/kg cell water min
same,Rate of methionine uptake (Table IV),"[2]; pH 5.6, Exp. 2",2.99 mmoles/kg cell water min
same,Rate of methionine uptake (Table IV),"[2]; pH 6.3, Exp. 1",3.03 mmoles/kg cell water min
same,Rate of methionine uptake (Table IV),"[2]; pH 6.3, Exp. 2",3.08 mmoles/kg cell water min
same,Rate of methionine uptake (Table IV),"[2]; pH 7.0, Exp. 1",2.86 mmoles/kg cell water min
same,Rate of methionine uptake (Table IV),"[2]; pH 7.0, Exp. 2",2.87 mmoles/kg cell water min
same,inhibitory action on the residual uptake of AIB,[2]; Na+ replaced with choline+ (Table I),negligible inhibitory action
same,distribution ratio (cellular level to extracellular level),"[2]; after 1 min, all Na+ eliminated from the medium",2.25
same,uptake (Table II),[2]; [10],1.35 mmoles/kg cell water min
same,uptake (Table II),[2]; [11],2.48 mmoles/kg cell water min
same,uptake (Table II),[2]; [12],1.44 mmoles/kg cell water min
same,uptake (Table II),[2]; [13],2.79 mmoles/kg cell water min
same,Uptake of AIB in presence of inhibitor (Table I),[2]; inhibitor 0.5 mM,0.17 mmoles/kg cell water-min
same,Uptake of AIB in presence of inhibitor (Table I),[2]; inhibitor 1 mM,0.14 mmoles/kg cell water-min
same,Uptake of labeled amino acid without inhibitor (Table I),[2]; experiment with AIB as inhibitor,2.68 mmoles/kg cell water-min
same,Uptake of labeled amino acid without inhibitor (Table I),[2]; experiment with MeAIB as inhibitor,1.77 mmoles/kg cell water-min
same,Ratio of uptake Methionine/other amino acid (Table VI),"[2]; methionine and leucine, each 0.2 mM",0.99
same,Ratio of uptake Methionine/other amino acid (Table VI),"[2]; methionine and leucine, each 0.4 mM",0.94
same,Ratio of uptake Methionine/other amino acid (Table VI),"[2]; methionine and leucine, each 0.8 mM",0.92
same,Ratio of uptake Methionine/other amino acid (Table VI),"[2]; methionine and leucine, each 1.6 mM",0.99
same,Ratio of uptake Methionine/other amino acid (Table VI),"[2]; methionine and valine, each 0.25 mM",3.2
same,Ratio of uptake Methionine/other amino acid (Table VI),"[2]; methionine and valine, each 0.5 mM",2.18
same,Ratio of uptake Methionine/other amino acid (Table VI),"[2]; methionine and valine, each 1.0 mM",1.65
same,Ratio of uptake Methionine/other amino acid (Table VI),"[2]; methionine and valine, each 2.0 mM",1.33
CC(C)[C@H](N)C(=O)O [valine],Km,[2],750 µM
